From ChEMBL document CHEMBL1201862, “PubChem BioAssay data set” (2004)
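Briefly, cells in 96-well plates were exposed to five compound concentrations for 48 h, and endpoints were estimated by linear interpolation. Here, GI50 denotes the concentration required for 50% inhibition of growth.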 Activity calls are given as the source filed them. Rule as the data show it: active = GI50 up to about 1.1 µM and inactive = higher.

Key:
Test in all cases: DTP human tumour cell line panel, 48 h
A498 = tested on: A498
CAKI-1 = tested on: CAKI-1
COLO 205 = tested on: COLO 205
EKVX = tested on: EKVX
HCC 2998 = tested on: HCC 2998
K562 = tested on: K562
KM12 = tested on: KM12
MCF7 = tested on: MCF7
MOLT-4 = tested on: MOLT-4
OVCAR-4 = tested on: OVCAR-4
OVCAR-5 = tested on: OVCAR-5
PC-3 = tested on: PC-3
RPMI-8226 = tested on: RPMI-8226
SF-268 = tested on: SF-268
SF-295 = tested on: SF-295
SK-MEL-28 = tested on: SK-MEL-28
SK-MEL-5 = tested on: SK-MEL-5
SNB-19 = tested on: SNB-19
SR = tested on: SR
UACC-257 = tested on: UACC-257

| Structure (SMILES) | GI50 (A498) | GI50 (CAKI-1) | GI50 (COLO 205) | GI50 (EKVX) | GI50 (HCC 2998) | GI50 (K562) | GI50 (KM12) | GI50 (MCF7) | GI50 (MOLT-4) | GI50 (OVCAR-4) | GI50 (OVCAR-5) | GI50 (PC-3) | GI50 (RPMI-8226) | GI50 (SF-268) | GI50 (SF-295) | GI50 (SK-MEL-28) | GI50 (SK-MEL-5) | GI50 (SNB-19) | GI50 (SR) | GI50 (UACC-257) |
| --- | --- | --- | --- | --- | --- | --- | --- | --- | --- | --- | --- | --- | --- | --- | --- | --- | --- | --- | --- | --- |
| Oc1cc(-c2ccccc2Cl)nc2cc3c(cc12)OCO3 | 0.116 µM (active) | 0.0573 µM (active) | 0.0507 µM (active) | 0.155 µM (active) | 0.144 µM (active) | 0.0399 µM (active) | 0.0486 µM (active) | 0.0518 µM (active) | 0.123 µM (active) | 2.76 µM (inactive) | 1.09 µM (active) | 0.0451 µM (active) | 0.101 µM (active) | 1.64 µM (inactive) | 0.107 µM (active) | 0.0638 µM (active) | 0.0435 µM (active) | 0.144 µM (active) | 0.0562 µM (active) | 0.443 µM (active) |
| O=C(O)/C=N\N=c1[nH]c2ccccc2[nH]1 | > 100 µM (inactive) | > 100 µM (inactive) | > 100 µM (inactive) | > 100 µM (inactive) | > 100 µM (inactive) | > 100 µM (inactive) | > 100 µM (inactive) | 49.2 µM (inactive) | > 100 µM (inactive) | > 100 µM (inactive) | > 100 µM (inactive) | > 100 µM (inactive) | > 100 µM (inactive) | > 100 µM (inactive) | > 100 µM (inactive) | > 100 µM (inactive) | > 100 µM (inactive) | > 100 µM (inactive) | > 100 µM (inactive) | > 100 µM (inactive) |
| O=C1/C(=C/c2ccc(O)cc2)CCC1CNc1ccc(Cl)cc1 (stereo not given) | 15 µM (inactive) | 1.55 µM (inactive) | 1.19 µM (inactive) | 6.61 µM (inactive) | 3.93 µM (inactive) | 0.25 µM (active) | 0.895 µM (active) | 1.34 µM (inactive) | 1.71 µM (inactive) | 2.96 µM (inactive) | 10.1 µM (inactive) | 1.42 µM (inactive) | 0.755 µM (active) | 3.2 µM (inactive) | 2.88 µM (inactive) | 9.95 µM (inactive) | 4.66 µM (inactive) | 15.2 µM (inactive) | 0.914 µM (active) | 3.05 µM (inactive) |
| CCN(CC)CCN1C=CC(C)C(C(=O)O)C1C(N)=O (stereo not given) | > 100 µM (inactive) | > 100 µM (inactive) | > 100 µM (inactive) | > 100 µM (inactive) | > 100 µM (inactive) | > 100 µM (inactive) | > 100 µM (inactive) | > 100 µM (inactive) | > 100 µM (inactive) | > 100 µM (inactive) | > 100 µM (inactive) | > 100 µM (inactive) | > 100 µM (inactive) | > 100 µM (inactive) | > 100 µM (inactive) | > 100 µM (inactive) | > 100 µM (inactive) | > 100 µM (inactive) | > 100 µM (inactive) | > 100 µM (inactive) |
| C[N+](C)([O-])C12CC3CC(CC(C3)C1)C2 | 22 µM (inactive) | > 100 µM (inactive) | 27 µM (inactive) | 21.4 µM (inactive) | 29.4 µM (inactive) | 29.4 µM (inactive) | 26.8 µM (inactive) | 33.1 µM (inactive) | 29.3 µM (inactive) | 33.1 µM (inactive) | 39.6 µM (inactive) | 22.4 µM (inactive) | 29.9 µM (inactive) | 38.3 µM (inactive) | 30 µM (inactive) | 32.4 µM (inactive) | 27.2 µM (inactive) | 46.3 µM (inactive) | 41.3 µM (inactive) | 39.2 µM (inactive) |
| CC(C)=CCC/C(C)=C/CC/C(C)=C/CC/C(C=O)=C/CC/C(C)=C\CC/C(C)=C/CC/C(C)=C/CC/C(C)=C/CC1=CC(=O)C=CC1=O | > 100 µM (inactive) | 33 µM (inactive) | 73.8 µM (inactive) | > 100 µM (inactive) | > 100 µM (inactive) | > 100 µM (inactive) | 81.3 µM (inactive) | 0.365 µM (active) | 55.5 µM (inactive) | > 100 µM (inactive) | > 100 µM (inactive) | > 100 µM (inactive) | 37.4 µM (inactive) | > 100 µM (inactive) | 91.4 µM (inactive) | > 100 µM (inactive) | 56 µM (inactive) | > 100 µM (inactive) | > 100 µM (inactive) | 48 µM (inactive) |
| O=[N+]([O-])c1ccc(S(=O)(=O)N=Ic2ccccc2)cc1 | > 100 µM (inactive) | > 100 µM (inactive) | > 100 µM (inactive) | 97.7 µM (inactive) | > 100 µM (inactive) | > 100 µM (inactive) | > 100 µM (inactive) | > 100 µM (inactive) | > 100 µM (inactive) | > 100 µM (inactive) | > 100 µM (inactive) | > 100 µM (inactive) | > 100 µM (inactive) | > 100 µM (inactive) | > 100 µM (inactive) | > 100 µM (inactive) | > 100 µM (inactive) | > 100 µM (inactive) | > 100 µM (inactive) | > 100 µM (inactive) |
| CCCCCc1cc2cc3c(c(O)c2c(=O)[nH]1)C1(CCC3)C(=O)c2c(O)c3c(c(O)c2C1=O)C(=O)C(OC)=CC3=O (stereo not given) | 2.18 µM (inactive) | 0.502 µM (active) | 0.276 µM (active) | 0.361 µM (active) | 2.05 µM (inactive) | 0.42 µM (active) | 1.85 µM (inactive) | 0.317 µM (active) | 0.582 µM (active) | 1.44 µM (inactive) | 2.02 µM (inactive) | 1.1 µM (active) | 0.386 µM (active) | 0.807 µM (active) | 1.91 µM (inactive) | 1.29 µM (inactive) | 0.515 µM (active) | 1.49 µM (inactive) | 0.573 µM (active) | 0.783 µM (active) |
| O=C1Nc2ccccc2/C1=C\c1c(Cl)n(-c2ccccc2)c2ccccc12 | 6.7 µM (inactive) | 2.49 µM (inactive) | 1.61 µM (inactive) | 2.33 µM (inactive) | 3.15 µM (inactive) | 2.48 µM (inactive) | 2.84 µM (inactive) | 3.44 µM (inactive) | 4.82 µM (inactive) | 5.02 µM (inactive) | 3.08 µM (inactive) | 3.78 µM (inactive) | 4.92 µM (inactive) | 0.832 µM (active) | 3.18 µM (inactive) | 12 µM (inactive) | 2.66 µM (inactive) | 2.99 µM (inactive) | 2.96 µM (inactive) | 9.2 µM (inactive) |
| COc1c(OC)c(OC)c2c(c1OC)c(=O)c1ccccc1n2C [MELICOPICINE] | > 100 µM (inactive) | > 100 µM (inactive) | > 100 µM (inactive) | > 100 µM (inactive) | > 100 µM (inactive) | > 100 µM (inactive) | 12.9 µM (inactive) | > 100 µM (inactive) | 51.1 µM (inactive) | 65.6 µM (inactive) | > 100 µM (inactive) | > 100 µM (inactive) | > 100 µM (inactive) | > 100 µM (inactive) | > 100 µM (inactive) | > 100 µM (inactive) | > 100 µM (inactive) | > 100 µM (inactive) | 6.65 µM (inactive) | > 100 µM (inactive) |
